In patent US6737383B1, “Herbicidal oxadiazolidines” (priority 1999, dated 2004):

Tests used:
purple nutsedge = experiment: Test B pre/postemergence purple nutsedge; type: in vivo, Cyperus rotundus
How it was run: (§1)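 Herbicidal effect was estimated by eye on a ten-point control scale after plants spent twelve to sixteen days in a greenhouse following soil or foliar treatment. Foliar sprays targeted plants at one to four leaves; all doses were formulated in a non-phytotoxic solvent with surfactant.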

wheat = experiment: Test B pre/postemergence wheat; type: in vivo, Triticum aestivum
How it was run: as §1

corn = experiment: Test B pre/postemergence corn; type: in vivo, Zea mays
How it was run: as §1

blackgrass = experiment: Test B pre/postemergence blackgrass; type: in vivo, Alopecurus myosuroides
How it was run: as §1

giant foxtail = experiment: Test B pre/postemergence giant foxtail; type: in vivo, Setaria faberii
How it was run: as §1

rape = experiment: Test B pre/postemergence rape; type: in vivo, Brassica napus
How it was run: as §1

morningglory = experiment: Test B pre/postemergence morningglory; type: in vivo, Ipomoea hederacea
How it was run: as §1

soybean = experiment: Test B pre/postemergence soybean; type: in vivo, Glycine max
How it was run: as §1

surinam grass = experiment: Test B pre/postemergence surinam grass; type: in vivo, Brachiaria decumbens
How it was run: as §1

velvetleaf = experiment: Test B pre/postemergence velvetleaf; type: in vivo, Abutilon theophrasti
How it was run: as §1

duck salad = experiment: Test B flood test duck salad; type: in vivo, Heteranthera limosa
How it was run: (§2)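 Flood test on plants grown to the 2-leaf stage; treated plants kept in greenhouse twelve to sixteen days, then visually rated against controls on a 0 (no effect) to 10 (complete control) scale.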

crabgrass = experiment: Test B pre/postemergence crabgrass; type: in vivo, Digitaria sanguinalis
How it was run: as §1

smallflower flatsedge = experiment: Test B flood test smallflower flatsedge; type: in vivo, Cyperus difformis
How it was run: as §2

sugar beet = experiment: Test B pre/postemergence sugar beet; type: in vivo, Beta vulgaris
How it was run: as §1

wild oat = experiment: Test B pre/postemergence wild oat; type: in vivo, Avena fatua
How it was run: as §1

cocklebur = experiment: Test B pre/postemergence cocklebur; type: in vivo, Xanthium strumarium
How it was run: as §1

[1] = Preemergence, Rate 62 g/ha, scale of 0 to 10 where 0 is no effect and 10 is complete control
[2] = Preemergence, Rate 125 g/ha, 0 is no effect, 10 is complete control
[3] = Preemergence, Rate 250 g/ha, scale 0 to 10, 0 is no effect, 10 is complete control
[4] = Preemergence, Rate 500 g/ha, scale of 0 to 10 where 0 is no effect and 10 is complete control
[5] = Rate 62 g/ha, Postemergence, scale of 0 to 10 where 0 is no effect and 10 is complete control
[6] = Rate 125 g/ha, Postemergence, scale 0 to 10
[7] = Rate 500 g/ha, Postemergence, scale 0 to 10
[8] = Rate 31 g/ha, Pre-emergence section (flood test species), scale 0 to 10
[9] = Rate 62 g/ha, headed Pre-emergence (flood test species), scale 0 to 10 (0 no effect, 10 complete control)
[10] = Rate 125 g/ha, Pre-emergence, flood test species, scale 0 to 10 where 0 is no effect and 10 is complete control
[11] = Rate 250 g/ha, Pre-emergence, flood-test species, scale 0 to 10, 0 is no effect, 10 is complete control

Cc1nc(C)c(-n2c(=O)on(C(=O)N(c3ccc(Cl)cc3)C(C)C)c2=O)s1 [Compound 196]
0: Nutsedge plant response rating (purple nutsedge; [1]) | Nutsedge plant response rating (0 to 10 scale) (purple nutsedge; [2]) | Nutsedge plant response rating (purple nutsedge; [3]) | Plant response rating, Nutsedge (purple nutsedge; [4]) | Nutsedge plant response rating (purple nutsedge; [5]) | Nutsedge plant response rating (purple nutsedge; [6]) | Plant response rating (0 to 10; 0 is no effect, 10 is complete control), Nutsedge (purple nutsedge; Rate 250 g/ha, Postemergence) | Nutsedge plant response rating (purple nutsedge; [7]) | Wheat plant response rating (wheat; [1]) | Wheat plant response rating (wheat; [3]) | Plant response rating, Wheat (wheat; [4]) | Wheat plant response rating (wheat; [5]) | Wheat plant response rating (wheat; [6]) | Plant response rating (0 to 10; 0 is no effect, 10 is complete control), Wheat (wheat; Rate 250 g/ha, Postemergence) | Corn plant response rating (corn; [1]) | Corn plant response rating (0 to 10 scale) (corn; [2]) | Corn plant response rating (corn; [3]) | Plant response rating, Corn (corn; [4]) | Corn plant response rating (corn; [5]) | Corn plant response rating (corn; [6]) | Plant response rating (0 to 10; 0 is no effect, 10 is complete control), Corn (corn; Rate 250 g/ha, Postemergence) | Corn plant response rating (corn; [7]) | Blackgrass plant response rating (blackgrass; [1]) | Blackgrass plant response rating (0 to 10 scale) (blackgrass; [2]) | Blackgrass plant response rating (blackgrass; [3]) | Plant response rating, Blackgrass (blackgrass; [4]) | Blackgrass plant response rating (blackgrass; [5]) | Blackgrass plant response rating (blackgrass; [6]) | Plant response rating (0 to 10; 0 is no effect, 10 is complete control), Blackgrass (blackgrass; Rate 250 g/ha, Postemergence) | Blackgrass plant response rating (blackgrass; [7]) | Giant foxtail plant response rating (giant foxtail; [1]) | Giant foxtail plant response rating (0 to 10 scale) (giant foxtail; [2]) | Giant foxtail plant response rating (giant foxtail; [3]) | Plant response rating, Giant foxtail (giant foxtail; [4]) | Giant foxtail plant response rating (giant foxtail; [5]) | Giant foxtail plant response rating (giant foxtail; [6]) | Plant response rating (0 to 10; 0 is no effect, 10 is complete control), Giant foxtail (giant foxtail; Rate 250 g/ha, Postemergence) | Giant foxtail plant response rating (giant foxtail; [7]) | Rape plant response rating (rape; [1]) | Rape plant response rating (0 to 10 scale) (rape; [2]) | Rape plant response rating (rape; [3]) | Plant response rating, Rape (rape; [4]) | Rape plant response rating (rape; [5]) | Rape plant response rating (rape; [6]) | Plant response rating (0 to 10; 0 is no effect, 10 is complete control), Rape (rape; Rate 250 g/ha, Postemergence) | Rape plant response rating (rape; [7]) | Morningglory plant response rating (morningglory; [1]) | Morningglory plant response rating (0 to 10 scale) (morningglory; [2]) | Morningglory plant response rating (morningglory; [3]) | Plant response rating, Morningglory (morningglory; [4]) | Morningglory plant response rating (morningglory; [5]) | Morningglory plant response rating (morningglory; [6]) | Plant response rating (0 to 10; 0 is no effect, 10 is complete control), Morningglory (morningglory; Rate 250 g/ha, Postemergence) | Morningglory plant response rating (morningglory; [7]) | Soybean plant response rating (soybean; [1]) | Soybean plant response rating (0 to 10 scale) (soybean; [2]) | Soybean plant response rating (soybean; [3]) | Plant response rating, Soybean (soybean; [4]) | Soybean plant response rating (soybean; [5]) | Soybean plant response rating (soybean; [6]) | Plant response rating (0 to 10; 0 is no effect, 10 is complete control), Soybean (soybean; Rate 250 g/ha, Postemergence) | Soybean plant response rating (soybean; [7]) | B. signalgrass plant response rating (surinam grass; [1]) | B. signalgrass plant response rating (0 to 10 scale) (surinam grass; [2]) | B. signalgrass plant response rating (surinam grass; [3]) | Plant response rating, B. signalgrass (surinam grass; [4]) | B. signalgrass plant response rating (surinam grass; [5]) | B. signalgrass plant response rating (surinam grass; Rate 125 g/ha, Postemergence, scale 0 (no effect) to 10 (complete control)) | Plant response rating, B. signalgrass (surinam grass; Rate 250 g/ha, Postemergence, scale 0 to 10, 0 is no effect, 10 is complete control) | B. signalgrass plant response rating (surinam grass; Rate 500 g/ha, Postemergence, scale 0 to 10, 0 no effect, 10 complete control) | Velvetleaf plant response rating (velvetleaf; [1]) | Velvetleaf plant response rating (velvetleaf; [3]) | Plant response rating, Velvetleaf (velvetleaf; [4]) | Velvetleaf plant response rating (velvetleaf; [5]) | Velvetleaf plant response rating (velvetleaf; [6]) | Plant response rating (0 to 10; 0 is no effect, 10 is complete control), Velvetleaf (velvetleaf; Rate 250 g/ha, Postemergence) | Ducksalad plant response rating (duck salad; [8]) | Ducksalad plant response rating (duck salad; [9]) | Ducksalad plant response rating (duck salad; [10]) | Ducksalad plant response rating (duck salad; [11]) | Plant response rating, Ducksalad (duck salad; Rate 500 g/ha, headed Pre-emergence (flood test species), scale 0 to 10 (0 no effect, 10 complete control)) | Crabgrass plant response rating (crabgrass; [1]) | Crabgrass plant response rating (0 to 10 scale) (crabgrass; [2]) | Crabgrass plant response rating (crabgrass; [3]) | Plant response rating, Crabgrass (crabgrass; [4]) | Crabgrass plant response rating (crabgrass; [5]) | Crabgrass plant response rating (crabgrass; [6]) | Plant response rating (0 to 10; 0 is no effect, 10 is complete control), Crabgrass (crabgrass; Rate 250 g/ha, Postemergence) | Crabgrass plant response rating (crabgrass; [7]) | S. Flatsedge plant response rating (smallflower flatsedge; [8]) | S. Flatsedge plant response rating (smallflower flatsedge; [9]) | S. Flatsedge plant response rating (smallflower flatsedge; [10]) | S. Flatsedge plant response rating (smallflower flatsedge; [11]) | S. Flatsedge plant response rating (smallflower flatsedge; Rate 500 g/ha, Pre-emergence, flood test species, scale 0 to 10 (0 no effect, 10 complete control)) | Sugarbeets plant response rating (sugar beet; [1]) | Sugarbeets plant response rating (0 to 10 scale) (sugar beet; [2]) | Sugarbeets plant response rating (sugar beet; [3]) | Plant response rating, Sugarbeets (sugar beet; [4]) | Sugarbeets plant response rating (sugar beet; [5]) | Sugarbeets plant response rating (sugar beet; [6]) | Plant response rating (0 to 10; 0 is no effect, 10 is complete control), Sugarbeets (sugar beet; Rate 250 g/ha, Postemergence) | Sugarbeets plant response rating (sugar beet; [7]) | Wild oats plant response rating (wild oat; [1]) | Wild oats plant response rating (wild oat; [3]) | Plant response rating, Wild oats (wild oat; [4]) | Wild oats plant response rating (wild oat; [5]) | Wild oats plant response rating (wild oat; [6]) | Plant response rating (0 to 10; 0 is no effect, 10 is complete control), Wild oats (wild oat; Rate 250 g/ha, Postemergence) | Cocklebur plant response rating (cocklebur; [1]) | Cocklebur plant response rating (0 to 10 scale) (cocklebur; [2]) | Cocklebur plant response rating (cocklebur; [3]) | Plant response rating, Cocklebur (cocklebur; [4]) | Cocklebur plant response rating (cocklebur; [5]) | Cocklebur plant response rating (cocklebur; [6]) | Plant response rating (0 to 10; 0 is no effect, 10 is complete control), Cocklebur (cocklebur; Rate 250 g/ha, Postemergence) | Cocklebur plant response rating (cocklebur; [7])
